Assay results reported in PubChem BioAssay (NCI).
Several values for one entry are separate records, joined by “and”; a condition that tells them apart may be missing. Equal values may be shown once.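 How tested: cells in 96-well plates exposed to compound for 48 hours at five concentrations. At the GI50, growth is halved. At the TGI there is no net growth.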

Test system: MDA-MB-468 breast
Test: NCI anticancer screen, dose series, 48 h

Row | SMILES | GI50 | TGI
1 | Clc1ccc(N2CCC(N3CCCC3)CC2)cc1-c1nc2ccccc2[nH]1 | 12100 nM | 26300 nM
2 | COc1ccc(Oc2cc(NCCC(F)(F)F)c3ncc(-c4ccc(C(=O)NC5CC5)c(C)c4)n3n2)c(F)c1F | 3650 nM | > 100000 nM
3 | O=C(Nc1cccc(-n2cc(-c3ccncc3)c(-c3ccc(O)c(Cl)c3)n2)c1)c1ccc(Cl)c(Cl)c1 | 16200 nM | > 100000 nM
4 | CCN1C(=O)N(CC)C2C1NN=c1s/c(=C\c3cccc([N+](=O)[O-])c3)c(=O)n12 (configuration not stated) | 375 nM | > 100000 nM
5 | COc1ccc(C(=O)OC2C(OC3C(O)COC(O[C@H]4C[C@H]5[C@@H]6CC=C7C[C@@H](O)CC[C@]7(C)[C@H]6CC[C@]5(C)[C@H]4[C@H](C)C(=O)CCC(C)C)C3OC(C)=O)OCC(O)C2O)cc1 (some centres not stated) | 6.66 nM | 1530 nM
6 | COc1cc(C2C3=C(COC3=O)Nc3cc4c(cc32)OCO4)cc2c1OCO2 (configuration not stated) | 55.9 nM | 242 nM
7 | CN1CCN(c2ccc(C(=O)Nc3cccc(C#Cc4cccc5[nH]nc(N)c45)c3)cc2C(F)(F)F)CC1 | 821 nM | 2390 nM
8 | CC(=O)/C(=C\c1c(-c2ccccc2)[nH]c2ccccc12)S(=O)(=O)c1ccccc1 | 987 nM | 14800 nM
9 | Brc1ccc2[nH]cc(-c3nn4cc(-c5nccs5)nc4s3)c2c1 | 3260 nM | 18300 nM
10 | CNC(=O)c1cc2c(Oc3ccc(NC(=S)NC(=O)Cc4ccccc4)cc3F)ccnc2cc1OC | > 29900 nM | > 100000 nM
11 | COc1ccc2[nH]c(O)c(/C=c3/ccc4c(c3)N=C(c3ccc(F)cc3)N=4)c2c1 | 4140 nM | 22300 nM
12 | CCN(Cc1cccc(F)c1F)c1ccc(CO)c(Cl)c1 | < 12.5 nM | 35 nM
13 | Cc1ncc(-c2ccnc(Nc3ccc(S(C)(=O)=O)cc3)n2)n1C(C)C | 1120 nM | 2930 nM
14 | COC(=O)[C@@H](OC)[C@@H]1Cc2cc3cc(OC4CC(OC5CC(O)C(O)C(C)O5)C(O)C(C)O4)c(C)c(O)c3c(O)c2C(=O)[C@H]1OC1CC(OC2CC(OC3CC(C)(O)C(O)C(C)O3)C(O)C(C)O2)C(O)C(C)O1 (some centres not stated) | 28.3 nM | 71.3 nM
15 | Cn1c2ccccc2c2nnc(NNCc3ccccn3)nc21 | 268 nM | 1160 nM
16 | Cc1cc2c(cc1C)[n+](Cc1ccc3ccccc3n1)cn2Cc1ccc2ccccc2n1 | 444 nM | 1950 nM
17 | O=C(COc1ccc(-c2nc3cc(Cl)c(Cl)cc3[nH]2)cc1)N=Nc1c(O)[nH]c2ccccc12 | 2600 nM | 6230 nM
18 | FC(F)(F)c1[nH]ncc1-c1nc2ccc3[nH]ncc3c2c2c1CCCC2 | 1860 nM | 4670 nM
19 | COc1ccc(/C=N\NC(=O)c2ccc3nc(-c4ccc(Br)cc4)[nH]c3c2)cc1 | 2750 nM | 5970 nM
20 | N=C(N)SCc1ccc([N+](=O)[O-])cc1[N+](=O)[O-] | 2520 nM | 8550 nM
21 | CC1(C)N=C(N)N=C(N)N1c1ccc(Cl)c(Cl)c1 | 337 nM | > 57500 nM

Row | SMILES | GI50 | TGI
22 | Oc1c(CNCCNCc2cc(Cl)cc(Cc3ccccc3)c2O)cc(Cl)cc1Cc1ccccc1 | 307 nM | 4430 nM
23 | COc1ccc(/C(=N/O)c2cc(OC)c(OC)c(OC)c2)c(OC)c1N | 3540 nM | > 100000 nM
24 | COc1cc(NC(C)CCCN)c2ncccc2c1Sc1ccc(Cl)cc1 (configuration not stated) | 1700 nM | 3110 nM
25 | O=C(c1ccccc1O)c1[nH]c(Cl)c(Cl)c1-n1c(C(=O)c2ccccc2O)cc(Cl)c1Cl | 436 nM and 339 nM | 6530 nM and 10400 nM
26 | CSc1nc(N)c2c(n1)NC(c1ccccc1)C1CCc3ccccc3C1=N2 (configuration not stated) | 84400 nM | > 100000 nM
27 | CC/C=C\C[C@H](O)C/C=C1/C(=O)C=C[C@@H]1C/C=C\CCCC(=O)NC | 940 nM | 2510 nM
28 | CN(C)CCOc1ccc(-c2cc(-c3ccc4c(c3)CC/C4=N\O)c(-c3ccncc3)o2)cc1 | 2800 nM | 6170 nM
29 | CC1(C)CC(=O)c2c(ccc(C(=O)C[C@@H](N)CO)c2N)O1 | 561 nM | 6880 nM
30 | CNCCCn1c2c(c3ccc(F)cc3c1=O)C(=O)c1cc(OC)cnc1-2 | 220 nM | 660 nM
31 | CC(=O)c1ccc2c(c1)N(CCCN(C)C)c1ccccc1S2 | 10400 nM | 22800 nM
32 | O=Nc1c(O)c2ccccc2c2ccccc12 | 1810 nM | 3730 nM
33 | Cc1cc(O)cc(C)c1/C=C/c1cncc(C(=O)OC(C)(C)C)c1 | 8410 nM | > 25000 nM
34 | C[C@]12CC[C@@H]3c4ccc(O)cc4CC[C@H]3[C@@H]1CC[C@@H]2NS(=O)(=O)c1ccc2ccccc2c1 | 3620 nM | 15200 nM
35 | COC(=O)/C(=C\c1c(-c2ccccc2)[nH]c2ccccc12)S(C)(=O)=O | 5400 nM | 84800 nM
36 | COc1ccc2nccc(/C=C/c3ccnc4ccc(OC)cc34)c2c1 | > 100000 nM | > 100000 nM
37 | Oc1ccccc1C=Nc1ccccc1N=Cc1ccccc1O.[Cu+2] | 1730 nM | 13500 nM
38 | CN(C)c1ccc(/C=N/NC(=O)c2cccc3ccccc23)c(Cl)c1 | 311 nM | 2570 nM
39 | COc1ccc(-c2nc(-c3nc4ccc(C(F)(F)F)cc4[nH]3)c3ccccn23)cc1 | 13400 nM | > 100000 nM
40 | CN(C)c1ccc(C(=C2C=CC(=[N+](C)C)C=C2)c2ccccc2Cl)cc1 | 220 nM | 655 nM
41 | CCCCCSC1C2C(=O)C(Br)=CC13CCNc1c(O)c4c5c(c13)=[N+]2CCC=5C=N4 (configuration not stated) | 390 nM | 1090 nM
